Data taken from patent US20010055541A1, “Porous material disinfection method” (priority 2000, published 2001).

Tests used:
[1] = test system: Bacillus stearothermophilus (ATCC 7953); experiment: Resistance of six organisms to sterilization with ozone gas (Example I); settings: six organisms compared, cell density 10^4-10^7, minimum of three runs
Poliovirus type I = Poliovirus type I in 9 minutes from activated sludge effluent; cited from earlier work
[2] = test system: human immunodeficiency virus (HIV); settings: non-toxic concentration of 4 μg ozone per ml of serum; cited from earlier work
Escherichia coli = Escherichia coli in 19 minutes from raw waste water; cited from earlier work
[3] = test system: Bacillus subtilis v. globigii spores; settings: within 1.5-2 minutes, water purged with 3% ozone by weight; cited from earlier work
Naegleria gruberi = Naegleria gruberi in 1.1 minutes from ozone-demand free phosphate buffer solution; cited from earlier work
Candida tropicalis = Candida tropicalis in 0.30 minutes from ozone-demand free water; cited from earlier work

O=[O+][O-] [ozone]
resistance of organism to ozone exposure (ability to maintain viability) [1]: most resistant organism | ozone concentration reported for a 99% reduction (Poliovirus type I): 0.2 mg/L | log reduction in the infectious titer [2]: six-log reduction | ozone concentration reported for a 99% reduction (Escherichia coli): 2.2 mg/L | log reduction of bacterial spores [3]: four-log reduction | ozone concentration reported for a 99% reduction (Naegleria gruberi): 1.2 mg/L | ozone concentration reported for a 99% reduction (Candida tropicalis): 0.02 mg/L
